Columns and labels:
[1] = molecular target: T1, P-glycoprotein (P-gp, MDR1) (Homo sapiens, UniProt P08183); test: [3H]vinblastine radioligand competition and inhibition of [3H]azidopine photoaffinity labelling of the […] kDa P-gp band; type: binding
T1 construct: gene ABCB1

[2] = molecular target: T1, P-glycoprotein (P-gp, MDR1); test: radioligand binding with self-competition by unlabelled vinblastine

T1 sequence (P08183 whole entry): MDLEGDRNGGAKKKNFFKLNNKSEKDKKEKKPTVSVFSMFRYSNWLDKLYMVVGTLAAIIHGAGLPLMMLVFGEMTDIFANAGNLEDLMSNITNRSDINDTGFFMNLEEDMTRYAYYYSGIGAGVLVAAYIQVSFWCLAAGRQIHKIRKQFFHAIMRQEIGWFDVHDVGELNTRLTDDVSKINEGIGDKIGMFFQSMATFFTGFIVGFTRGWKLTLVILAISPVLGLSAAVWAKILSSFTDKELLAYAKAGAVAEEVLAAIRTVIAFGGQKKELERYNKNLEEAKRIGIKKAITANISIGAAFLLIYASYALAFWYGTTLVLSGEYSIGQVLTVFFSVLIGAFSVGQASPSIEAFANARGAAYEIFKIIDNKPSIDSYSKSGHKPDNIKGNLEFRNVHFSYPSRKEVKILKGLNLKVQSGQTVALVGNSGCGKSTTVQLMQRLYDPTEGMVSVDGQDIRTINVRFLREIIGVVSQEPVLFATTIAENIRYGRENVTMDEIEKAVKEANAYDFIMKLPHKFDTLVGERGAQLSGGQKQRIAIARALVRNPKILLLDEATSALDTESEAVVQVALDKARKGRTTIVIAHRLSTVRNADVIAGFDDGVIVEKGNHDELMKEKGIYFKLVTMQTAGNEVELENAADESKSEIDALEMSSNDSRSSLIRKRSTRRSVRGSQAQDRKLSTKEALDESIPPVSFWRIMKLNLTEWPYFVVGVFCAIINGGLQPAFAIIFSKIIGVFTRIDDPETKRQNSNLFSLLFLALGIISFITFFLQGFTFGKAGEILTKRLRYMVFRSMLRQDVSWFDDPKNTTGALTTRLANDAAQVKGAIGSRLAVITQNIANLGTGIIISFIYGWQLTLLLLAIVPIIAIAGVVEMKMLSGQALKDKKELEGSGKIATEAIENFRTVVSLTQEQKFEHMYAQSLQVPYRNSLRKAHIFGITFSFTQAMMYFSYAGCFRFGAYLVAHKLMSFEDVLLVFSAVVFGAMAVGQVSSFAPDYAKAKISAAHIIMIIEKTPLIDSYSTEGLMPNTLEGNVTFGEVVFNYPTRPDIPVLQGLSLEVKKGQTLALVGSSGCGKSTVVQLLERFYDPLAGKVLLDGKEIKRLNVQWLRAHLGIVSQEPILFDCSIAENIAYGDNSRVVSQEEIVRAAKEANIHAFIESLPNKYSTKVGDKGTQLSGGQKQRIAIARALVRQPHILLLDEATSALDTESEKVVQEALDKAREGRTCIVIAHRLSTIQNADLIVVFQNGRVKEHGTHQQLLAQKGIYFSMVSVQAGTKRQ

Row | SMILES | [3H]vinblastine radioligand competition and inhibition of [3H]azidopine photoaff [1] | radioligand binding with self-competition by unlabelled vinblastine [2]
1 | CN(C)CCCn1cc(C2=C(c3c[nH]c4ccccc34)C(=O)NC2=O)c2ccccc21 [GF 109203X] | Inhibition of the photo- affinity labelling was observed in a similar micromolar | –
2 | CC[C@]1(O)C[C@@H]2CN(CCc3c([nH]c4ccccc34)[C@@](C(=O)OC)(c3cc4c(cc3OC)N(C)[C@H]3[C@@](O)(C(=O)OC)[C@H](OC(C)=O)[C@]5(CC)C=CCN6CC[C@]43[C@@H]65)C2)C1 [vinblastine sulphate] | – | Competition of [3H]vinblastine sulphate binding by unlabelled vinblastine sulphate was included as a control.
